Each block holds one compound with its values, some of them ahead of it.
Tests used:
human MC3R = conditions: cited from earlier work
mMC3R [1] = biological target: T1, mMC3R (Mus musculus, UniProt P33033); experiment: 125I-NDP-MSH competitive binding assay at mMC3R; conditions: vs Ac-His-DPhe-Arg-Trp-NH2; negative = more potent than control
mMC3R [2] = biological target: T1, mMC3R; conditions: read-out: mMC3R EC50; cited from earlier work
mMC4R = mMC4R (Mus musculus, UniProt P56450); conditions: read-out: mMC4R EC50; cited from earlier work
human MC4R = conditions: cited from earlier work
hMC4R = conditions: cited from earlier work

T1 sequence (P33033 whole entry): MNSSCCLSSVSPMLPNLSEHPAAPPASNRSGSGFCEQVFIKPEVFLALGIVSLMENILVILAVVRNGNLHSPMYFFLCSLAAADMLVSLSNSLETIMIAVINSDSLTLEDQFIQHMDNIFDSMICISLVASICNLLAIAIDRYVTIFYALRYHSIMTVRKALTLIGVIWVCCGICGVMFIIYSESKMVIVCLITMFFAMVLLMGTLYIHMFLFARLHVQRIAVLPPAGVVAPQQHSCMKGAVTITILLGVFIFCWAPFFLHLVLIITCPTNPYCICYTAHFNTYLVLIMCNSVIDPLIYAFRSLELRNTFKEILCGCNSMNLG
Chain of mMC4R (P56450 whole entry): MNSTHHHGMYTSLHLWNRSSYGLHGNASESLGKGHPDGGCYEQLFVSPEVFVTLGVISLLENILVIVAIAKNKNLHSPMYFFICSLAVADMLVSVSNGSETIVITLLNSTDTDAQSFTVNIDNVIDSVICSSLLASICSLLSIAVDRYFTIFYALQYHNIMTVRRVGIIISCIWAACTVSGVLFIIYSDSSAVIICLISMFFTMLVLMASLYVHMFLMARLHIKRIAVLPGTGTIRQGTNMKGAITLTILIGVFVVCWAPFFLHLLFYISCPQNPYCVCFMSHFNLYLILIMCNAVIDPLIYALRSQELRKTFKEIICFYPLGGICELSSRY

Compound: CC(=O)N[C@@H](Cc1c[nH]cn1)C(=O)N[C@H](Cc1ccccc1)C(=O)N[C@@H](CCCNC(=N)N)C(=O)N[C@@H](Cc1c[nH]c2ccccc12)C(N)=O [Ac-His-DPhe-Arg-Trp-NH2]
IC50 (human MC3R; read-out: human MC3R IC50, previously reported): > 10000 nM

mMC3R (IC50) Fold Diff. (mMC3R [1]): -115
Compound: CC(=O)N[C@@H](CCCNC(=N)N)C(=O)N[C@@H](CCCNC(=N)N)C(=O)N[C@H](Cc1ccc(I)cc1)C(=O)N[C@H](Cc1ccc2ccccc2c1)C(N)=O [Compound 41, Ac-Arg-Arg-(pI)DPhe-DNal(2′)-NH2]

Compound: Ac-Ser-Tyr-Ser-Nle-Glu-His-Arg-Phe-Phe-Gly-Lys-Pro-Val-NH2 (SYSXEHRFFGKPV; HELM PEPTIDE1{[ac].S.Y.S.[Nle].E.H.R.F.F.G.K.P.V.[am]}$$$$V2.0; SMILES CCCC[C@H](NC(=O)[C@H](CO)NC(=O)[C@H](Cc1ccc(O)cc1)NC(=O)[C@H](CO)NC(C)=O)C(=O)N[C@@H](CCC(=O)O)C(=O)N[C@@H](Cc1c[nH]cn1)C(=O)N[C@@H](CCCNC(=N)N)C(=O)N[C@@H](Cc1ccccc1)C(=O)N[C@@H](Cc1ccccc1)C(=O)NCC(=O)N[C@@H](CCCCN)C(=O)N1CCC[C@H]1C(=O)N[C@H](C(N)=O)C(C)C)
EC50 (mMC3R [2]): 480 nM
EC50 (mMC4R): 930 nM

Compound: Tic-(pI)DPhe-Arg-Trp-NH2
binding to human MC3R (human MC3R): 75 nM
binding to human MC4R (human MC4R): 0.30 nM
hMC4R agonist activation with respect to maximal response (hMC4R): > 35%
hMC4R antagonist pA2 (hMC4R): 9.10
Ki (hMC4R; read-out: hMC4R antagonist Ki): 0.79 nM

Reference: article PMC5672800 (Journal of medicinal chemistry, 2017)
